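Where inhibition never reached the appropriate level, the endpoint shown equals the highest concentration tested. Otherwise, values were interpolated linearly from a five-concentration, 48-hour dose response in 96-well plates. Here, GI50 denotes the concentration required for 50% inhibition of growth.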 The source made the active and inactive calls. Cut-off read from the data, not from the text of the source: active = GI50 up to about 1.1 µM and inactive = higher.
Experiments:
Experiment in all cases: growth of human tumour cells (NCI), 48 h
MDA-N = tested on: MDA-N
BT-549 = tested on: BT-549
SR = tested on: SR
786-0 = tested on: 786-0
T47D = tested on: T47D
HCC 2998 = tested on: HCC 2998
SNB-75 = tested on: SNB-75
PC-3 = tested on: PC-3
UO-31 = tested on: UO-31
M14 = tested on: M14
RPMI-8226 = tested on: RPMI-8226
COLO 205 = tested on: COLO 205
UACC-62 = tested on: UACC-62
U-251 = tested on: U-251
HCT-116 = tested on: HCT-116
UACC-257 = tested on: UACC-257
SK-MEL-2 = tested on: SK-MEL-2
MDA-MB-231 = tested on: MDA-MB-231
SF-539 = tested on: SF-539
SF-268 = tested on: SF-268
OVCAR-8 = tested on: OVCAR-8
CAKI-1 = tested on: CAKI-1
IGROV-1 = tested on: IGROV-1
OVCAR-4 = tested on: OVCAR-4
HOP-62 = tested on: HOP-62
SF-295 = tested on: SF-295
NCI/ADR-RES = tested on: NCI/ADR-RES
NCI-H23 = tested on: NCI-H23
Malme-3M = tested on: Malme-3M
SN12C = tested on: SN12C
A498 = tested on: A498
ACHN = tested on: ACHN
CCRF-CEM = tested on: CCRF-CEM
A549 = tested on: A549
HT-29 = tested on: HT-29
DU-145 = tested on: DU-145
SW-620 = tested on: SW-620
TK-10 = tested on: TK-10
MOLT-4 = tested on: MOLT-4
OVCAR-5 = tested on: OVCAR-5
EKVX = tested on: EKVX
KM12 = tested on: KM12
HOP-92 = tested on: HOP-92
NCI-H522 = tested on: NCI-H522
SK-MEL-5 = tested on: SK-MEL-5
LOX IMVI = tested on: LOX IMVI
MDA-MB-435 = tested on: MDA-MB-435
HCT-15 = tested on: HCT-15
NCI-H226 = tested on: NCI-H226
K562 = tested on: K562
SK-OV-3 = tested on: SK-OV-3
OVCAR-3 = tested on: OVCAR-3
NCI-H460 = tested on: NCI-H460
HL-60 = tested on: HL-60
RXF 393 = tested on: RXF 393
SNB-19 = tested on: SNB-19
SK-MEL-28 = tested on: SK-MEL-28
MCF7 = tested on: MCF7

Measured: GI50

O=[N+]([O-])c1ccc2c(c1)C1=C(CO2)Cc2ccccc2O1
inactive: MDA-N 17.9 µM | BT-549 28.8 µM | SR 18.9 µM | 786-0 17.4 µM | T47D 10.9 µM | HCC 2998 19.7 µM | SNB-75 > 100 µM | PC-3 19.1 µM | UO-31 13.7 µM | M14 20.6 µM | RPMI-8226 36.6 µM | COLO 205 16.8 µM | UACC-62 19.4 µM | U-251 17.6 µM | HCT-116 16.3 µM | UACC-257 17.8 µM | SK-MEL-2 37.9 µM | MDA-MB-231 27.4 µM | SF-539 23.9 µM | SF-268 21.3 µM | OVCAR-8 33.5 µM | CAKI-1 17.6 µM | IGROV-1 19.2 µM | OVCAR-4 36.9 µM | HOP-62 64.6 µM | SF-295 37.8 µM | NCI/ADR-RES 30.3 µM | NCI-H23 22 µM | Malme-3M 26.4 µM | SN12C 25.9 µM | A498 63.8 µM | ACHN 15.5 µM | CCRF-CEM 23.6 µM | A549 42.4 µM | HT-29 26.2 µM | DU-145 33.9 µM | SW-620 21.3 µM | TK-10 26.5 µM | MOLT-4 > 10 µM | OVCAR-5 24.5 µM | EKVX 27.2 µM | KM12 20.1 µM | HOP-92 23.9 µM | NCI-H522 22.4 µM | SK-MEL-5 15.8 µM | LOX IMVI 14.8 µM | MDA-MB-435 25.6 µM | NCI-H226 26.2 µM | K562 51.4 µM | SK-OV-3 74.5 µM | OVCAR-3 19.8 µM
14.3 µM: HCT-15

Cc1cc2c(O)c(c1)COCc1cc(C)cc(c1O)COCc1cc(C)cc(c1O)COC2
inactive: MDA-N > 100 µM | BT-549 > 100 µM | SR 91 µM | 786-0 47.1 µM | T47D > 100 µM | HCC 2998 > 100 µM | SNB-75 80.5 µM | PC-3 > 100 µM | UO-31 > 100 µM | M14 > 100 µM | NCI-H460 92 µM | RPMI-8226 > 100 µM | COLO 205 96.2 µM | UACC-62 > 100 µM | U-251 > 100 µM | HCT-116 32.7 µM | UACC-257 > 100 µM | SK-MEL-2 > 100 µM | MDA-MB-231 72.8 µM | SF-539 > 100 µM | HL-60 > 100 µM | SF-268 > 100 µM | OVCAR-8 50.1 µM | CAKI-1 > 100 µM | OVCAR-4 > 100 µM | HOP-62 > 100 µM | SF-295 > 100 µM | NCI/ADR-RES > 100 µM | NCI-H23 > 100 µM | Malme-3M > 100 µM | SN12C > 100 µM | A498 > 100 µM | ACHN > 100 µM | CCRF-CEM 32.1 µM | A549 > 100 µM | HT-29 95.3 µM | DU-145 > 100 µM | RXF 393 > 100 µM | SW-620 > 100 µM | MOLT-4 > 100 µM | OVCAR-5 > 100 µM | EKVX > 100 µM | KM12 > 100 µM | SNB-19 > 100 µM | HOP-92 > 100 µM | NCI-H522 49.2 µM | SK-MEL-28 > 100 µM | MDA-MB-435 > 100 µM | MCF7 > 100 µM | NCI-H226 > 100 µM | K562 > 100 µM | SK-OV-3 > 100 µM | OVCAR-3 > 100 µM
> 100 µM: HCT-15

CCC1(c2ccc(OC)c(OC)c2)CCN(S(=O)(=O)c2ccc(C)cc2)C1 (stereo not drawn)
inactive: MDA-N > 100 µM | BT-549 > 100 µM | SR > 10 µM | 786-0 > 100 µM | T47D > 100 µM | HCC 2998 > 100 µM | SNB-75 > 100 µM | PC-3 > 100 µM | UO-31 > 100 µM | M14 > 100 µM | NCI-H460 64 µM | COLO 205 > 100 µM | UACC-62 > 100 µM | U-251 > 100 µM | HCT-116 57.4 µM | UACC-257 > 100 µM | SK-MEL-2 > 100 µM | MDA-MB-231 > 100 µM | SF-539 > 100 µM | SF-268 > 100 µM | CAKI-1 > 100 µM | IGROV-1 > 100 µM | OVCAR-4 39.4 µM | HOP-62 > 100 µM | SF-295 > 100 µM | NCI/ADR-RES 72.8 µM | NCI-H23 > 100 µM | SN12C > 100 µM | ACHN > 100 µM | CCRF-CEM > 100 µM | A549 62.8 µM | HT-29 > 100 µM | DU-145 > 100 µM | RXF 393 > 100 µM | SW-620 > 100 µM | TK-10 > 100 µM | MOLT-4 19.2 µM | OVCAR-5 > 100 µM | EKVX > 100 µM | KM12 33.3 µM | SNB-19 > 100 µM | NCI-H522 68.5 µM | SK-MEL-5 33.7 µM | SK-MEL-28 > 10 µM | LOX IMVI > 100 µM | MDA-MB-435 82.6 µM | MCF7 > 100 µM | NCI-H226 > 100 µM | K562 > 10 µM | SK-OV-3 > 100 µM | OVCAR-3 > 100 µM
> 100 µM: HCT-15
